According to article PMC3361971 (Journal of Natural Products, 2012):
Values after ≈ are worked out from the molar mass of the structure shown.

Tests used:
[1] = test system: lettuce (Lactuca sativa cv. L., Iceberg); experiment: Phytotoxicity assay, lettuce; conditions: 1 mg/mL; visual ranking on scale of 0 to 5; in the presence of light
[2] = test system: Staphylococcus aureus ATCC 29213; experiment: Antimicrobial assay, methicillin-sensitive Staph. aureus; assay type: cell-based; conditions: ATCC29213
[3] = test system: bentgrass (Agrostis stolonifera); experiment: Phytotoxicity assay, bentgrass; conditions: 1 mg/mL; visual ranking on scale of 0 to 5; in the presence of light
[4] = test system: methicillin-resistant Staphylococcus aureus ATCC 33591 (MRSA); experiment: Antimicrobial assay, methicillin-resistant Staph. aureus; assay type: cell-based; conditions: ATCC33591|MRSA
[5] = test system: Leishmania donovani promastigotes; experiment: Antileishmanial assay; assay type: cell-based; conditions: read-out: Antileishmanial activity IC90
[6] = test system: Vero cells (kidney fibroblast); experiment: Cytotoxicity to Vero cells; assay type: cell-based
[7] = test system: Plasmodium falciparum W2 (chloroquine resistant) strain; experiment: Antiplasmodial assay, chloroquine-resistant; assay type: cell-based; conditions: selectivity index = IC50 for cytotoxicity (Vero)/IC50 for antiplasmodial activity
[8] = test system: Plasmodium falciparum D6 (chloroquine sensitive) strain; experiment: Antiplasmodial assay, chloroquine-sensitive; assay type: cell-based; conditions: selectivity index = IC50 for cytotoxicity (Vero)/IC50 for antiplasmodial activity

Row | Compound | Phytotoxic activity ranking, lettuce [1] | Phytotoxic activity ranking, bentgrass [3] | other results
1 | COc1c(C[C@@H](C)O)c2c3c(C[C@@H](C)O)c(OC)c(=O)c4c(O)cc5c(c6c(cc(O)c(c1=O)c62)OCO5)c43 [Compound 5, (+)-cercosporin] | 3 | 2 | MIC [2]: 2.5 ng/mL (≈ 4.68 nM); MIC [4]: 5 ng/mL (≈ 9.35 nM)
2 | COc1c(C[C@@H](C)OC(C)=O)c2c3c(C[C@@H](C)O)c(OC)c(=O)c4c(O)cc5c(c6c(cc(O)c(c1=O)c62)OCO5)c43 [Compound 6, (+)-14-O-acetylcercosporin] | 2 | 4 | IC90 [5]: 8.5 µM
3 | COc1c(C[C@@H](C)OC(C)=O)c2c3c(C[C@@H](C)OC(C)=O)c(OC)c(=O)c4c(O)cc5c(c6c(cc(O)c(c1=O)c62)OCO5)c43 [Compound 7, (+)-di-O-acetylcercosporin] | 3 | 4 | 
4 | 13-(R)-hydroxy-N-(O-methyl)septoriamycin A [Compound 4] |  |  | Cytotoxicity to Vero cells IC50 [6]: no antimicrobial, antifungal, antiprotozoal, phytotoxic, or cytotoxic activity
5 | CC[C@@H](C)[C@H]1O[C@@H](c2c(OC)c(-c3ccccc3)c[n+]([O-])c2OC)[C@H](C)C[C@@H]1C [Compound 10c] |  |  | Chloroquine-resistant (W2)-clone S. I. [7]: >1.2; Chloroquine-sensitive (D6)-clone S.I. [8]: >1.1
